Assay results from US20130071495A1, “INHIBITORS OF GLYCOGEN SYNTHASE KINASE 3 FOR USE IN THERAPEUTIC METHODS AND SCREENING METHOD RELATING THERETO” (Helmholtz Zentrum Muenchen Deutsches Forschungszentrum fuer …, priority 2010, published 2013).

Key:
Type in all cases: in vivo, C57BL/6N mice
[1] = test system: elastase-induced emphysema model (mice); experiment: Quantitative morphometry of lung structure in elastase-induced emphysema
Experimental: (§1) Six- to eight-week-old pathogen-free female C57BL/6N mice (Charles River Laboratories) were used throughout this study. All experiments were performed in accordance with the guidelines of the Ethics Committee of the University of Giessen School of Medicine and approved by the Regierungspräsidium Giessen, Hesse, Germany. Mice had free access to water and rodent laboratory chow. Pancreatic elastase was dissolved in sterile PBS and applied orotracheally (100 U/kg BW). Control mice received 80 μl sterile PBS. Lung tissues were excised and snap-frozen or inflated with 4% (m/v) paraformaldehyde in PBS (PAA Laboratories) at 21 cm H2O pressure for histological analyses.
The WNT/β-catenin signaling pathway in lungs from C57BL/6N mice was activated via intraperitoneal injection of lithium chloride (200 mg/KG/BW/day) (22). […]
To assess air space enlargement, the mean chord length (MCL) was quantified by superimposing a line grid on the images of lung sections at a magnification of 200×. Points on the lines of the grid hitting the air spaces, and intercepts of the lines with alveolar septa were counted to calculate MCL according to the formula: MCL=ΣPair×L(p)/(Isepta/2) (μm), where ΣPair is the sum of the points of the grid overlaid air spaces, L(p) is the line length per point and Isepta is the sum of the intercepts of alveolar septa with the lines of the grid. For the morphometric assessment of alveolar surface area per unit volume of lung parenchyma (Sv) were determined by counting the number of points that fell on alveolar septal tissue and alveolar space, and by counting the number of intercepts with alveolar septal surface at a magnification of 200× according to the following formulas: Sv=2×Isepta/(ΣPpar×L(p)/3) (1 μm), where ΣPpar is the sum of the points of hitting parenchyma, L(p) is the line length per test point in μm, and Isepta the sum of the intercepts with alveolar septa.

[2] = test system: elastase-induced emphysema model (mice); experiment: Collagen assay (Sircol) in whole-lung homogenates, elastase-induced emphysema; conditions: preventive approach, LiCl 200 mg/kg/day i.p. day 0-7; vehicle 29.6±4.1; p=0.042
Experimental: as §1
The WNT/β-catenin signaling pathway in lungs from C57BL/6N mice was activated via intraperitoneal injection of lithium chloride (200 mg/KG/BW/day) (22). Lithium chloride mimics members of the WNT family of signalling proteins by inhibiting the activity of GSK-3β and thus causes intracellular accumulation of β-catenin, a feature associated with the canonical WNT/β-catenin signalling pathway (23). […]
Whole-mouse lung homogenates were used for in vivo analysis. Total collagen content was determined using the Sircol Collagen Assay kit (Biocolor). […] Samples and collagen standards were then read at 540 nm in a spectrophotometer (Bio-Rad). Collagen concentrations were calculated using a standard curve with acid-soluble type I collagen.

[3] = test system: elastase-induced emphysema model (mice); experiment: qRT-PCR of ECM and alveolar epithelial cell markers in lungs, elastase-induced emphysema; conditions: preventive approach, day 7
Experimental: as §1
(§2) The WNT/β-catenin signaling pathway in lungs from C57BL/6N mice was activated via intraperitoneal injection of lithium chloride (200 mg/KG/BW/day) (22). Lithium chloride mimics members of the WNT family of signalling proteins by inhibiting the activity of GSK-3β and thus causes intracellular accumulation of β-catenin, a feature associated with the canonical WNT/β-catenin signalling pathway (23). Under these circumstances, β-catenin can enter the nucleus and influence the expression of target genes. Lithium chloride was diluted in sterile water and fresh stock was prepared for every injection. Mice were treated on a daily basis, from day 0, the day of elastase subjection to day 7 in the preventive regime, and from day 7 to 14 in the therapeutic regime, respectively. The following scheme illustrates preventive and therapeutic activation of WNT/β-catenin signaling in experimental emphysema:
(§3) Mice were subjected to a single orotracheal application of elastase, which led to the development of pulmonary emphysema from day 1 to 14. WNT/β-catenin activation by treatment with lithium chloride (LiCl) was initiated on day of elastase subjection to day 7 (referred to as preventive approach), or from day 7 to day 14 (referred to as therapeutic approach), using the indicated concentrations (daily application intraperitonal (i.p.), n=6 for each group).
Total RNA was extracted using Qiagen extraction kits according to the manufacturer's protocol, and cDNAs were generated by reverse transcription using SuperScript™ II (Invitrogen). Quantitative (q)RT-PCR was performed using fluorogenic SYBR Green and the Sequence Detection System Fast 7500 (PE Applied Biosystems). HPRT1 and PBGD, ubiquitously and equally expressed genes free of pseudogenes, were used as a reference gene in all human and mouse qRT-PCR reactions, respectively. PCR was performed using the primers listed in Table 1 and 2, respectively, at a final concentration of 200 nM. Relative transcript abundance of a gene is expressed in ΔCt values (ΔCt=ct^reference−Ct^target). Relative changes in transcript levels compared to controls are ΔΔCt values (ΔΔCt=ΔCt^treated−ΔCt^control). All ΔΔCt values correspond approximately to the binary logarithm of the fold change as mentioned in the text. When relative transcript abundance is of information, expression levels are given in ΔCt levels.

[4] = test system: elastase-induced emphysema model (mice); experiment: Immunoblotting and densitometry of SP-C in lung homogenates, elastase-induced emphysema; conditions: preventive approach, LiCl 200 mg/kg/day i.p. day 0-7; vehicle 0.36±0.06; p=0.0231
Experimental: as §1
as §2, with “Mice were treated on a daily basis, from day 0, the day of elastase subjection to day 7 in the preventive regime, and from day 7 to 14 in the therapeutic regime, respectively. The following scheme illustrates preventive and therapeutic activation of WNT/β-catenin signaling in experimental emphysema:” left out

[5] = test system: elastase-induced emphysema model (mice); experiment: Histological and immunohistochemical assessment of lung sections, elastase-induced emphysema
Experimental: as §1, §2
as §3, with “group). […]” for “group).”

[Cl-].[Li+] [LiCl, Lithium chloride]
mean chord length ([1]; preventive approach, LiCl 200 mg/kg/day i.p. day 0-7, vehicle 109.9±7.8, p=0.0021): 74.0±6.6 μm
surface area ([1]; preventive approach, LiCl 200 mg/kg/day i.p. day 0-7, vehicle 317.8±27.5, p=0.0067): 560.7±55.7 cm^2
mean chord length ([1]; therapeutic approach, LiCl 200 mg/kg/day i.p. day 7-14, vehicle 106.4±2.3, p=0.021): 85.3±2.5
total collagen content in lung homogenates [2]: 16.1 µg/mL
cadherin 1 (cdh1) mRNA, log-fold change LiCl-treated versus untreated lungs ([3]; p=0.003): 0.97±0.20
aquaporin 5 (aqp5) mRNA, log-fold change LiCl-treated versus untreated lungs ([3]; p=0.025): 0.63±0.18
thyroid transcription factor 1 (ttf1) mRNA, log-fold change LiCl-treated versus untreated lungs ([3]; p=0.033): 1.20±0.30
SP-C mRNA, log-fold change LiCl-treated versus untreated lungs ([3]; p=0.0475): −1.21±0.42
mRNA of type I collagen α1 (col1a1), log-fold change LiCl-treated versus untreated lungs ([3]; p=0.0496): −0.86±0.33
forkhead box P2 (foxp2) mRNA, log-fold change LiCl-treated versus untreated lungs ([3]; p=0.146): 1.38±0.59
SP-C protein expression (immunoblot densitometry) [4]: 0.62±0.05
immunohistochemical staining for SP-C, WNT3a and β-catenin ([5]; preventive approach, compared with vehicle-treated mice): increased appearance of SP-C-positive cells with enhanced staining of the WNT/β-catenin signaling component WNT3a as well as nuclear β-catenin staining
histological assessment of the lung structure ([5]; preventive approach, day 0-7, H&E staining): marked attenuated emphysematous changes
histological assessment of the lung structure ([5]; therapeutic approach, day 7-14, H&E staining): marked attenuation of emphysema along with restored lung architecture
